Assay results: patent US20250213547A1, “METHODS OF TREATING NEUROLOGICAL DISEASES” (priority 2022, published 2025)
Like-named read-outs stand apart in the source and are kept apart here.

Key:
Assay type in all cases: in vivo, human
[1] = test system: seizure frequency in pediatric patients with Dravet syndrome or Lennox-Gastaut syndrome; assay: ELEKTRA: percent change in seizure frequency from baseline; details: for Number of patients with 25% reduction in seizures (responders) / Number of patients with 50% reduction in seizures (responders) / Number of patients with 75% reduction in seizures (responders) / Number of patients with 100% reduction in seizures (responders): maintenance period; for Median percent change in seizure frequency from baseline / Range of percent change in seizure frequency from baseline / seizure frequency change from baseline versus placebo: ELEKTRA; for Median percent change in seizure frequency from baseline / Range of percent change in seizure frequency from baseline: N 64; for seizure frequency change from baseline versus placebo: pediatric DEE patients
Excerpt: Other inclusion criteria were body weight ≥10 kg, currently taking a fixed dosage of 1 to 4 antiseizure medications, and failure to remain seizure free after trying at least two antiseizure medications. Convulsive seizures include focal to bilateral tonic-clonic with impaired awareness, hemi-clonic, simultaneous bilateral clonic, and generalized tonic-clonic seizures. Drop seizures can involve the entire body, trunk, or head which leads to falling. […] Approximately 126 patients ages ≥2 and ≤17 years were enrolled in the study. The study included two main phases, a 4-6 week screening and baseline period, and a 20-week treatment period. Patients received doses twice a day in a tablet formulation. The starting dose was adjusted according to the patient's body weight (Table 17).
During the first 8 weeks of treatment patient dosing was a titrated for individual optimization. The remaining 12-weeks of treatment consisted of a maintenance phase. The study began with treating patients ≥9 years of age for one month before treating younger patients. Blood was collected for PK analysis on the first dosage day within one hour of the morning dose, and 30 minutes, and 1, 2, 3, and 4 hours post-dose. Subsequent blood sampling took place before the morning dose and 30 minutes post-dose. Blood samples were obtained at scheduled times for determining PK profile and Tmax, which is the time Cmax was reached. A patient's seizure frequency was recorded before and during the trial to calculate percent change from baseline.
The ELEKTRA study is described in the specification and in examples 12 and 13. […] Statistical significance was computed using a Rank Transformed Analysis of Covariance (ANCOVA) with a 2-side p-value, while adjusting for baseline seizure frequency and indication.

[2] = Multiple rising dose study: safety (TEAEs) in healthy subjects over 14 days
Description: Subjects were monitored during the study and a full review was conducted after each rising dose. Safety data monitoring included vitals, physical and visual examinations, electrocardiogram, BMI, and clinical laboratory tests. […] Percentages are rounded to one decimal place. A subject with two or more different adverse events (AE) within the same levels of the MedDRA term and treatment is counted only once at that level using the most related or severe incident. A TEAE is defined as an AE or SAE that occurs or gets worse after receiving the first dose of study drug and within 30 days after the last dose of study drug.

[3] = Healthy Japanese subjects, Part 1 (single dose 200, 600, 1200 mg tablets): PK of TAK-935 and M-I; details: plasma; for Vd/F: read-out: Vz/F; for half-life: read-out: t1/2z (terminal disposition phase half-life) (converted); for AUC: read-out: Mean AUC24
Description: This study consisted of 2 parts, and was a randomized, double-blind, placebo-controlled study to assess safety, tolerability, and PK and PD of TAK-935 when administered orally in healthy Japanese subjects.
On Day 1 of each dose level, a single dose of TAK-935 or placebo was administered, and safety, PK and PD were evaluated.
After the screening visit, eligible participants checked—in on Day-2. On Day 1, eligible participants were randomized 6:2 to TAK-935 or placebo in each dose group in double-blinded fashion. No stratification variables were used for randomization. On the same day, study drug was administered by oral administration of single dosing of TAK-935 to each cohort at each dose level. The subjects were discharged on Day 3. Intensive PK samplings were performed from Day 1 to Day 3.
Subjects received a single dose of TAK-935 or placebo of 200 mg, 600 mg, or 1200 mg with 150 mL of water, after fasting for at least 10 hours and remained fasted until 4 hours after dosing.
Blood samples for PK analysis of TAK-935 and its metabolites (M-I) were collected into blood collection tubes (vacutainer) containing the anticoagulant K2EDTA (Table 40e and Table 40f).
The PK parameters of TAK-935 and its metabolites (M-I) were determined from the concentration-time profiles for all evaluable subjects. Actual sampling times, rather than scheduled sampling times, were used in all computations involving sampling times. The following PK parameters were calculated from plasma concentrations of TAK-935 and its metabolites (M-I), unless otherwise specified: […]

[4] = Dravet syndrome, Weeks 9-20, N 24
[5] = TAK-935 200 mg single dose, mean
[6] = TAK-935 600 mg single dose, mean
[7] = TAK-935 1200 mg single dose, mean
[8] = human, oral, TAK-935 200 mg single dose, mean
[9] = human, oral, TAK-935 600 mg single dose, mean
[10] = human, oral, TAK-935 1200 mg single dose, mean
[11] = human, oral, TAK-935, single dose 200 mg
[12] = human, oral, TAK-935, single dose 600 mg
[13] = human, oral, TAK-935, single dose 1200 mg

## O=C(c1cccnc1-c1ccncc1)N1CCC(O)(Cc2ccccc2)CC1 [soticlestat]
[1]; [4]
  Median percent change in convulsive seizure frequency per 28 days from baseline: −36.5%
  Range of percent change in convulsive seizure frequency per 28 days from baseline: (−100 to 84.1) %
[1]; Dravet syndrome, N 24
  Number of patients with 25% reduction in seizures (responders): 66.7
  Number of patients with 50% reduction in seizures (responders): 41.7
  Number of patients with 75% reduction in seizures (responders): 20.8
  Number of patients with 100% reduction in seizures (responders): 8.3
[1]; Weeks 0-20
  Median percent change in seizure frequency from baseline: −30.05%
  Range of percent change in seizure frequency from baseline: (−100-347.5) %
[1]; Weeks 9-20
  Median percent change in seizure frequency from baseline: −27.76%
  Range of percent change in seizure frequency from baseline: (−100 to 160.6) %
[1]; Lennox-Gastaut syndrome, Weeks 9-20, N 40
  Median percent change from baseline in drop seizure frequency per 28 days: −18.46%
[1]; Lennox-Gastaut syndrome, N 40
  Number of patients with 25% reduction in seizures (responders): 42.5
  Number of patients with 50% reduction in seizures (responders): 27.5
  Number of patients with 75% reduction in seizures (responders): 10
  Number of patients with 100% reduction in seizures (responders): 5
[1]
  seizure frequency change from baseline versus placebo: highly significant
[1]; listed as Soticlestat
  seizure frequency change from baseline versus placebo: significantly decreased seizure frequency
[2]; 100 mg QD, n = 6
  Deaths, number of subjects (%): 0 subjects (%)
[2]; 300 mg BID, n = 6
  Deaths, number of subjects (%): 0 subjects (%)
[2]; 300 mg QD, n = 6
  Deaths, number of subjects (%): 0 subjects (%)
[2]; 400 mg QD, n = 6
  Deaths, number of subjects (%): 0 subjects (%)
  Mild TEAEs, number of subjects (%): 4 (66.7) subjects (%)
  Related TEAEs, number of subjects (%): 4 (66.7) subjects (%)
[2]; 600 mg QD, n = 6
  Deaths, number of subjects (%): 0 subjects (%)
[2]; both, human, in vivo, 14 days
  Mild TEAEs, number of subjects: 12 subjects
  Moderate TEAEs, number of subjects: 1 subjects
  TEAEs mild and transient: 91%
  TEAEs, number of subjects: 14 subjects
[2]; human, in vivo
  number of TEAEs reported: Forty-five
[2]; human, in vivo, 14 days
  Not related TEAEs, number of subjects: 1 subjects
  Related TEAEs, number of subjects: 13 subjects
  SAEs, number of subjects: 0 subjects
  Severe TEAEs, number of subjects: 1 subjects
  TEAEs leading to halt, number of subjects: 2 subjects
[2]; soticlestat total, n = 30
  Deaths, number of subjects: 0 subjects
[3]; [5]
  CL/F: 470.8 L/h
  Lambda z: 0.1608 h⁻¹
[3]; [6]
  AUC∞: 3917 ng·h/mL
  CL/F: 178.4 L/h
  Lambda z: 0.1634 h⁻¹
[3]; TAK-935 600 mg single dose, median
  Tmax: 30 min
[3]; [7]
  CL/F: 119.8 L/h
  Lambda z: 0.1922 h⁻¹
[3]; [8]
  AUC(0-inf): 720 ng·h/mL
  AUC(0-t): 695 ng·h/mL
  Vd/F: 4260 L
  half-life: 353 min
[3]; [9]
  AUC(0-t): 3860 ng·h/mL
  Vd/F: 2340 L
  half-life: 522 min
[3]; [10]
  AUC(0-inf): 11400 ng·h/mL
  AUC(0-t): 11400 ng·h/mL
  Vd/F: 769 L
  half-life: 304 min
[3]; human, oral, 200 mg, TAK-935 200 mg single dose, median, read-out: tmax
  Tmax: 45 min
[3]; human, oral, 1200 mg, TAK-935 1200 mg single dose, median, read-out: tmax
  Tmax: 30 min
[3]; human, oral, 1200 mg, TAK-935, single dose 200, 600, 1200 mg, read-out: Tmax (median), range
  Tmax: 30 to 45 min
[3]; [11]
  Cmax: 850 ng/mL
  AUC: 698 ng·h/mL
[3]; [12]
  Cmax: 3280 ng/mL
  AUC: 3860 ng·h/mL
[3]; [13]
  Cmax: 10200 ng/mL
  AUC: 11300 ng·h/mL
